A word on the inhibition: it is the relative decrease from the control value, in per cent. Low values mean a weak effect, high ones a strong effect.

This experiment concerns HCV replication. Kind of experiment: HCV replicon assay (luciferase) in ET (Huh-lucubineo-ET) cell line. The settings on record: Hepatitis C virus, tested at 5 μM; ET replicon cells; luciferase activity measured 48-72 hours later; relative to no compound control. The class given is cell-based. The gist of the method: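 Huh-lucubineo-ET cells stably carry a subgenomic replicon with a firefly luciferase–ubiquitin–neo fusion and adaptive NS3-5B mutations; they were seeded 24 h before compound addition (0.1 nM–50 μM, 0.5% DMSO). Luciferase was read 48–72 h later as % inhibition versus no-compound control, with parallel WST-1 cytotoxicity. EC50 and TC50 came from 10-point 2-fold dilutions fitted to a Hill equation.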
(In general: Replicon systems follow genome replication, usually without infectious particles.)
On to `O=C(O)c1ccc(C2SC[C@@H](C(=O)Nc3nc(-c4ccc(C(=O)NC5CC5)cc4)cs3)N2C(=O)OCc2ccccc2)cc1` (mixture of isomers) [Compound 7014, (R)-2-(4-Carboxy-phenyl)-4-[4-(4-cyclopropylcarbamoyl-phenyl)-thiazol-2-ylcarbamoyl]-thiazolidine-3-carboxylic acid benzyl ester], for which at 5 µM the inhibition was 97.7%.

`CN(C(=O)[C@@H]1CSC(c2ccncc2)N1C(=O)OCc1ccccc1)c1nc(-c2ccc(C(=O)NC3CC3)cc2)cs1` (stereo partly drawn) [Compound 7106, 4-{[4-(4-Cyclopropylcarbamoyl-phenyl)-thiazol-2-yl]-methyl-carbamoyl}-2-pyridin-4-yl-thiazolidine-3-carboxylic acid benzyl ester]: the inhibition at 5 µM is 32.9%.

In the case of `O=C(NC1CC1)c1ccc(-c2csc(NC(=O)[C@@H]3CSC(C4CCOCC4)N3C(=O)[C@@H]3CCCO3)n2)cc1` (stereo partly drawn) [Compound 7069, 3-(Tetrahydro-furan-2-carbonyl)-2-(tetrahydro-pyran-4-yl)-thiazolidine-4-carboxylic acid [4-(4-cyclopropylcarbamoyl-phenyl)-thiazol-2-yl]-amide], 5 µM produced 98.8% inhibition.

Take `O=C(NC1CC1)c1ccc(-c2csc(NC(=O)[C@@H]3CSC(C4CCCCC4)N3C(=O)OCc3ccccc3)n2)cc1` (mixture of isomers) [Compound 7035, (R)-2-Cyclohexyl-4-[4-(4-cyclopropylcarbamoyl-phenyl)-thiazol-2-ylcarbamoyl]-thiazolidine-3-carboxylic acid benzyl ester]: the inhibition at 5 µM was determined as 98.9%.

In the case of `O=C(NC1CC1)c1ccc(-c2csc(NC(=O)[C@@H]3CSC(CCCCC(=O)N4CCOCC4)N3C(=O)OCc3ccccc3)n2)cc1` (stereo partly drawn) [Compound 7071, 4-[4-(4-Cyclopropylcarbamoyl-phenyl)-thiazol-2-ylcarbamoyl]-2-(5-morpholin-4-yl-5-oxo-pentyl)-thiazolidine-3-carboxylic acid benzyl ester], 5 µM produced 100% inhibition.

Molecule `O=C(Cc1cccc(NC(=O)[C@@H]2CSC(c3ccncc3)N2C(=O)OCc2ccccc2)c1)NCc1ccc(Cl)cc1` (stereo in doubt) [Compound 7115, 4-{3-[(4-Chloro-benzylcarbamoyl)-methyl]-phenylcarbamoyl}-2-pyridin-4-yl-thiazolidine-3-carboxylic acid benzyl ester] returned an inhibition at 5 µM of 98%.
